Article PMC9481570, “A small molecule antagonist of SMN disrupts the interaction between SMN and RNAP II” (Nature Communications, 2022)

How the values were obtained:
TDRD2 = biological target: T1, TDRD2 (Homo sapiens, UniProt Q9Y2W6); assay: ITC binding to TDRD2; conditions: Fig. 1c
T1 construct: TDRD2 (aa 327–420); His (N, cleaved yes); made in house; host or cells: E. coli BL21 (DE3) Codon plus RIL
Description: (§1) The coding DNA fragments of following Tudor domains were cloned into pET28-MHL vector: SMN (aa 82–147), UHRF1 (aa 126–285), SMNDC1 (aa 53–130), TDRD3 (aa 554–611), SND1 (aa 650–910), TDRD2 (aa 327–420), FXR1 (aa 2–132), PHF1 (aa 28–87), SGF29 (aa 115–293), JMJD2A (aa 897–1101), 53BP1 (aa 1483–1606), SETDB1 (aa 190–410), LBR (aa 1–67), ZGPAT (aa 120–271). The coding regions of chromodomain of CBX7 (aa 8–62), PWWP domain of DNMT3A (aa 275–417), WD40 repeats of WDR5 (aa 24–334) and CW domain of ZCWPW2 (aa 21–78) were also subcloned into pET28-MHL vector to generate N-terminally His-tagged fusion protein. The MBT repeats of L3MBTL1 (aa 200–522) and L3MBTL2 (aa 170–625) were subcloned into pET28GST-LIC vector to generate N-terminally GST-His-tagged fusion protein. All the plasmids were generated by ligase independent cloning (Vazyme Biotech, C112 or ABclonal Technology, RK21020). […] The molecular weight of all protein samples was measured by mass spectrometry.
(§2) For the ITC measurement, the concentrated proteins were diluted into 20 mM Tris-HCl, pH 7.5, 150 mM NaCl (ITC buffer); the lyophilized compounds were dissolved in the same buffer, and the pH value was adjusted by adding 2 M NaOH or 2 M HCl. […] Compound concentrations were calculated from the mass and the volume of the solvent. […]

SMN_W102A = biological target: T2, SMN_W102A (Homo sapiens, UniProt Q16637, W102A); assay: ITC binding to SMN Tudor mutant W102A; conditions: Fig. 3d
T2 construct: SMN (aa 82–147); His (N, cleaved yes); made in house; host or cells: E. coli BL21 (DE3) Codon plus RIL
T2 sequence (Q16637 82-147 W102A): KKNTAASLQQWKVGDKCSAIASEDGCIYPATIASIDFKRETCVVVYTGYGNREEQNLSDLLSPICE
Description: as §1, §2

T1 sequence (Q9Y2W6 327-420): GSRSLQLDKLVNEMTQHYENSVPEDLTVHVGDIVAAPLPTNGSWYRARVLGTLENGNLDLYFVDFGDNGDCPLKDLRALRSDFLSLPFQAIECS

Question: How did the Kd (TDRD2) turn out when `Cn1c2c(c(=N)c3c1CCC3)CCC2` [Compound 1, 4-methyl-2,3,4,5,6,7-hexahydrodicyclopenta[b,e]pyridin-8(1H)-imine] was run?
Answer: The Kd was greater than 244 µM.

Question: And the Kd (SMN_W102A)?
Answer: Its Kd is greater than 244 µM.
